In publication PMC12541891 (MicrobiologyOpen, 2025):
In brackets after ≈: the same amount, converted by molar mass. Several values for one entry are separate records, joined by “and”; a condition that tells them apart may be missing. Equal entries are not always repeated.

Columns and labels:
C. glabrata biofilm = experiment: Biofilm metabolic activity by XTT-reduction assay; assay type: cell-based, Candida glabrata
Description: (§1) For all bacterial strains considered in the study, biofilm was performed on a 96‐well plate inoculated with 200 µL of a bacterial suspension 1 × 10^6 CFU/mL and incubated 24 h at 37°C. After incubation for 4 h at 37°C, the medium was aspirated, non‐adherent cells were removed, washed with PBS and added with 200 µL of fresh medium. […] Similarly, to perform fungal biofilm, the different Candida species were grown for 24 h at 28°C on a multi‐wells plate, washed twice with sterile PBS, and then resuspended at 37°C in RPMI 1640 plus 10% FBS at 2.5 × 10^7 cells. After incubation for 3 h at 37°C in six‐well polystyrene plates, the medium was aspirated, non‐adherent cells were removed and washed with PBS.
(§2) The biofilm metabolic activity was evaluated by XTT assay, that highpoints the activity through the reduction of the tetrazolium salt to formazan. After the removal of supernatant and washing with PBS, a solution of XTT‐menadione solution were added to wells. The XTT‐menadione was prepared dissolving XTT powder in prewarmed PBS (37°C) at 0.5 g/L. The solution was sterilized through a 0.22 μm pore size filter. Before each assay, the XTT solution was thawed and supplemented with menadione, a 10 mM stock dissolved in acetone to a final concentration 1 μM. Plates were incubated for 3 h at 37°C in the dark and then the absorbance was measured at 492 nm using the microplate reader, Tecan Sunrise.

[1] = test system: Staphylococcus aureus ATCC 6538; experiment: MIC and MBC by microbroth dilution; assay type: cell-based
Description: (§3) No substance was added, in one well, for growth control. A bacterial suspension of 1 × 10^8 CFU/mL was inoculated into all wells of the plate and incubated for 24 h at 37°C. […] The dilutions ranged from 4 to 2000 µg/mL for the substances. The inoculum size was about 2.5×10^3 cells/mL. The plates were incubated at 28°C for 24–48 h. The MIC was determined as the lowest substances' concentration where no visible bacterial or fungal growth was observed. […] Each antimicrobial assay was performed in triplicate.

[2] = test system: Escherichia coli MG1655 (ATCC 700926); experiment: MIC and MBC by microbroth dilution; assay type: cell-based
Description: as §3

[3] = test system: Extended Spectrum-Beta-Lactamase producing E. coli (ESBL-Ec); experiment: MIC and MBC by microbroth dilution; assay type: cell-based; details: Escherichia coli
Description: as §3

[4] = test system: methicillin resistant S. aureus (MRSA); experiment: MIC and MBC by microbroth dilution; assay type: cell-based; details: Staphylococcus aureus
Description: as §3

C. albicans biofilm = experiment: Biofilm biomass by crystal violet (CV) assay; assay type: cell-based, Candida albicans
Description: as §1
(§4) To quantify bacterial and Candida biofilm biomass, CV, a dye able to color the biofilm matrix, was used. Firstly, after the removal of supernatant and washing with PBS, biofilm was fixed adding 100 µL of 99% methanol for 15 min. Then, methanol was rinsed off and the plates were air‐dried. Subsequently, 100 µL of a 0.1% of CV solution were added to wells and, after 20 min of contact, the plates were washed under running tap water. To dissolve the bounded CV, 150 µL of 33% of glacial acetic acid were added to wells. The absorbance was measured at 590 nm using an automatic microplate reader, Tecan Sunrise (Tecan Group Ltd., Männedorf, Switzerland).

E. coli biofilm [5] = experiment: Biofilm metabolic activity by XTT-reduction assay; assay type: cell-based, Escherichia coli; details: substance alone at MIC
Description: as §1, §2

ESBL-Ec biofilm [6] = experiment: Biofilm metabolic activity by XTT-reduction assay; assay type: cell-based, Escherichia coli; details: substance alone at MIC
Description: as §1, §2

C. glabrata DSY562 = experiment: MIC and MFC by microbroth dilution; assay type: cell-based, Candida glabrata; details: Nakaseomyces glabratus, DSY562
Description: as §3

Caco-2 cell line = experiment: MTT cytotoxicity assay; details: Caco-2, 24 h contact, 15-125 µg/mL tested
Description: (§5) These cell lines were purchased from the American Type Culture Collection (ATCC HTB‐37, Rockville, USA) and stored in liquid nitrogen. T24 cells were cultured in RPMI, supplemented with 10% FBS, 2 mM glutamine, 100 U/mL penicillin, and 100 µg/mL streptomycin. A549 and Caco‐2 cells were cultured in DMEM, supplemented with 10% FBS, 100 U/mL penicillin and 100 μg/mL streptomycin. Cultures were incubated at 37°C in a humidified 5% CO2 atmosphere.
(§6) In a 96‐well plate, 200 μL of cell suspension (10^4 cells/well) were added to each well and plates were incubated at 37°C, 5% CO2. […] Untreated cells were taken as control. After 24 h of treatment, culture medium was replaced with 200 μL of fresh medium added with MTT (5 mg/mL), then plates were incubated for 4 h at 37°C, 5% CO2 atmosphere. Afterward, culture medium with MTT was removed and 200 μl of DMSO were added to each well to dissolve the formazan crystals formed in living cells. After 15 min of incubation, the absorbance was measured at 570 nm, with the reference set at 620 nm, using the automatic microplate reader, Tecan Sunrise (Kumar et al. [2018]). Controls in all the experiments were: (i) wells without the substances assayed, as positive cells growth control; (ii) wells added with ethanol or DMSO in the same amounts in which the substances were suspended, as cells growth control in presence of the substances' solvents.

A549 cell line = experiment: MTT cytotoxicity assay; details: A549, 24 h contact, 15-125 µg/mL tested
Description: as §5, §6

C. krusei 44956 = experiment: MIC and MFC by microbroth dilution; assay type: cell-based, Candida krusei; details: Pichia kudriavzevii, 44956
Description: as §3

C. krusei biofilm = experiment: Biofilm biomass by crystal violet (CV) assay; assay type: cell-based, Candida krusei; details: substance alone at MIC
Description: as §1, §4

C. tropicalis biofilm = experiment: Biofilm metabolic activity by XTT-reduction assay; assay type: cell-based, Candida tropicalis
Description: as §1, §2

E. coli biofilm [7] = experiment: Biofilm biomass by crystal violet (CV) assay; assay type: cell-based, Escherichia coli; details: substance alone at MIC
Description: as §1, §4

ESBL-Ec biofilm [8] = experiment: Biofilm biomass by crystal violet (CV) assay; assay type: cell-based, Escherichia coli; details: substance alone at MIC
Description: as §1, §4

[9] = biofilm in formation (3 h), substance alone at MIC
[10] = biofilm in formation, sub-MIC concentrations alone or in combination (Table 5), listed as C
[11] = preformed biofilm (24 h), substance alone at MIC
[12] = preformed biofilm, sub-MIC concentrations alone or in combination (Table 5), listed as C

Cc1ccc(C(C)C)cc1O [Carvacrol, 2‐methyl‐5‐isopropyl phenol]
Percentage of metabolic activity reduction (C. glabrata biofilm; [9]): 92% | Percentage of metabolic activity reduction (C. glabrata biofilm; [10]): 70% | Percentage of metabolic activity reduction (C. glabrata biofilm; [11]): 91.0% | Percentage of metabolic activity reduction (C. glabrata biofilm; [12]): 51.2% | MBC ([1]; ATCC6538): 125 µg/mL (≈ 832 µM) | MIC ([1]; ATCC6538, 24 h): 125 µg/mL (≈ 832 µM) | MBC [2]: 125 µg/mL (≈ 832 µM) | MIC ([2]; 24 h): 125 µg/mL (≈ 832 µM) | MBC [3]: 125 µg/mL (≈ 832 µM) | MIC ([3]; 24 h): 125 µg/mL (≈ 832 µM) | MBC [4]: 125 µg/mL (≈ 832 µM) | MIC ([4]; 24 h): 125 µg/mL (≈ 832 µM) | Percentage of biomass reduction (C. albicans biofilm; [10]): 53.5% | Percentage of biomass reduction (C. albicans biofilm; [11]): 36% | Percentage of biomass reduction (C. albicans biofilm; [12]): 29.6% | Percentage of metabolic activity reduction (E. coli biofilm [5]; biofilm in formation (4 h)): 62% | Percentage of metabolic activity reduction (E. coli biofilm [5]; preformed biofilm (24 h)): 28.5% | Percentage of metabolic activity reduction (ESBL-Ec biofilm [6]; biofilm in formation (4 h)): 57% | Percentage of metabolic activity reduction (ESBL-Ec biofilm [6]; preformed biofilm (24 h)): 22% | MFC (C. glabrata DSY562): 500 µg/mL (≈ 3330 µM) | MIC (C. glabrata DSY562): 250 µg/mL (≈ 1660 µM) | concentrations significantly cytotoxic (Caco-2 cell line): > 31 µg/mL | concentrations significantly cytotoxic (A549 cell line): > 31 µg/mL | MFC (C. krusei 44956): 500 µg/mL (≈ 3330 µM) | MIC (C. krusei 44956): 500 µg/mL (≈ 3330 µM) | Percentage of biomass reduction (C. krusei biofilm; biofilm in formation (3 h)): 18% and 18.4% | Percentage of biomass reduction (C. krusei biofilm; preformed biofilm (24 h)): 39.2% | Percentage of metabolic activity reduction (C. tropicalis biofilm; [9]): 88.7% | Percentage of metabolic activity reduction (C. tropicalis biofilm; [10]): 35.0% | Percentage of metabolic activity reduction (C. tropicalis biofilm; [11]): 72.8% | Percentage of metabolic activity reduction (C. tropicalis biofilm; [12]): 26.1% | Percentage of biomass reduction (E. coli biofilm [7]; biofilm in formation (4 h)): 70.6% | Percentage of biomass reduction (E. coli biofilm [7]; preformed biofilm (24 h)): 62.2% | Percentage of biomass reduction (ESBL-Ec biofilm [8]; biofilm in formation (4 h)): 55.9% | Percentage of biomass reduction (ESBL-Ec biofilm [8]; preformed biofilm (24 h)): 59.6%
